Assay results as given in patent US12319655B2, “RAF kinase inhibitors and methods of use thereof” (Deciphera Pharmaceuticals, LLC, priority 2021, dated 2025).
Read-outs that look alike come from different tables or passages of the source.

Tests used:
[1] = molecular target: C-Raf kinase (SEQ. ID NO: 3) (Homo sapiens (Human), UniProt P04049, Y340D/Y341D); test: Biochemical Assay for C-Raf (1); details: Table J
Outline: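 IC50 values come from a four-parameter fit of percent inhibition, using the reaction rate over 4–5 h of a 6 h continuous 340 nm read at 30 °C. The enzyme mix was C-Raf 0.43 nM, MEK substrate 30.1 nM and ATP 1 mM, in a PK/LDH NADH-coupled format in Tris pH 7.5 with 1% DMSO.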

[2] = molecular target: A-Raf kinase (SEQ. ID No: 1) (Homo sapiens (Human), UniProt P10398, Y301D/Y302D); test: Biochemical Assay for A-Raf (1); details: Table J
Sequence of A-Raf kinase (SEQ. ID No: 1) (P10398 other isoform, or with tags, fused parts or gaps Y301D (already in the parent)/Y302D (already in the parent)): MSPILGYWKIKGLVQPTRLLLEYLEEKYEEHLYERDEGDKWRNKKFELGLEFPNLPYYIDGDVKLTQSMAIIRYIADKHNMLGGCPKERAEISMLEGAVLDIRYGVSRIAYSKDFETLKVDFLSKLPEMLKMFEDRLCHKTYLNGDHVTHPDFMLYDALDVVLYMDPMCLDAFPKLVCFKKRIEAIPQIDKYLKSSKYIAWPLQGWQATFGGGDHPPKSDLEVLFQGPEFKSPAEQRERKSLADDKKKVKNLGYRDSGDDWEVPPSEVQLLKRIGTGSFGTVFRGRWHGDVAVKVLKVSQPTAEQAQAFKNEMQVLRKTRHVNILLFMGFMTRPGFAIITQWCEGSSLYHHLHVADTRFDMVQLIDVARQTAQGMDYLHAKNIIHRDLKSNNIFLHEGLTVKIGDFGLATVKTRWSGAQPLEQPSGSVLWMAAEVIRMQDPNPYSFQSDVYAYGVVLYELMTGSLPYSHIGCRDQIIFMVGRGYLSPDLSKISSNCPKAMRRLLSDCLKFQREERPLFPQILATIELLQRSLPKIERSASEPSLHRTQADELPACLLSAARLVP
Outline: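 IC50 values were derived by four-parameter sigmoidal fitting of percent inhibition, calculated from reaction rates over the 4–5 h window. Absorbance at 340 nm was tracked for 6 h at 30 °C via coupled PK/LDH NADH depletion. Conditions: 1 mM ATP, 30.1 nM MEK substrate, 5.55 nM A-Raf (Y301D/Y302D), Tris pH 7.5, 1% DMSO.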

[3] = molecular target: B-Raf (V600E) (SEQ. ID NO: 4) kinase (Homo sapiens (Human), UniProt P15056, V600E); test: Biochemical Assay for B-Raf (V600E) (1); details: Table J, BRAF V600E
Sequence of B-Raf (V600E) (SEQ. ID NO: 4) kinase (P15056 416-766 V600E): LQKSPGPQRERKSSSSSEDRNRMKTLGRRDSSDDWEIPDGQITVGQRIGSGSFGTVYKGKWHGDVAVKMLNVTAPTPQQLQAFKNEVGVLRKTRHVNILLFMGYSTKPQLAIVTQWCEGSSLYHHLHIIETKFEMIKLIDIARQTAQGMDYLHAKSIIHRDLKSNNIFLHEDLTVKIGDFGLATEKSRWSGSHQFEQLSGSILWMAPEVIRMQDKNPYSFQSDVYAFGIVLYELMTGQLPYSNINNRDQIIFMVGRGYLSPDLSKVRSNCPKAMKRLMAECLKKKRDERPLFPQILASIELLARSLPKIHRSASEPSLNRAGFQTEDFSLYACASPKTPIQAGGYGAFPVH
Outline: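 Serially diluted compounds tested against 0.03 nM enzyme with 30.1 nM MEK substrate and 1 mM ATP (Tris pH 7.5, 15 mM MgCl2), ATP use coupled to NADH loss via PK/LDH. A340 monitored continuously 6 h, 30 °C; IC50 fitted (four-parameter) from the 3–4 h rate versus no-compound and known-inhibitor controls.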

Miapaca-2 cells = test: MiaPaca-2 Cell Proliferation Assay (1); type: cell-based; details: Homo sapiens, MIA PaCa-2, single agent, read-out: MiaPaca2 (1) IC50
Outline: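 Resazurin was added after compound exposure and incubated 5-6 h, then fluorescence read at 540 nm excitation and 600 nm emission to give IC50.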

[4] = assay version (1), read-out: CRAF (1) IC50
[5] = assay version (1), read-out: ARAF (1) IC50
[6] = assay version (1), read-out: BRAF VE (1) IC50
[7] = biochemical assay (1), read-out: CRAF (1)
[8] = biochemical assay (1), read-out: ARAF (1)
[9] = biochemical assay (1), read-out: BRAF VE (1)

Sequence of C-Raf kinase (SEQ. ID NO: 3) (P04049 307-648 Y340D/Y341D): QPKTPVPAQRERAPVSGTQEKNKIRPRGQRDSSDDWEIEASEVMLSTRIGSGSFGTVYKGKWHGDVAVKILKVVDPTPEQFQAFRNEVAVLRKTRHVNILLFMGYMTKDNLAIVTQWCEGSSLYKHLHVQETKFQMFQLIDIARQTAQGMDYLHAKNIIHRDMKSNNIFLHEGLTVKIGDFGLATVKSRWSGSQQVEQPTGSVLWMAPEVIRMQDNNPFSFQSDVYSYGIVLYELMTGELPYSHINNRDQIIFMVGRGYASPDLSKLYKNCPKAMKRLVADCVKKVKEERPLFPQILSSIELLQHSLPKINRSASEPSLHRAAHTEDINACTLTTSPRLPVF

| IC50 [1, 4] | IC50 [2, 5] | IC50 [3, 6] | IC50 (Miapaca-2 cells) | IC50 [1, 7] | IC50 [2, 8] | IC50 [3, 9] | SMILES |
| --- | --- | --- | --- | --- | --- | --- | --- |
| ≤ 100 nM | 1000 to 10000 nM | ≤ 100 nM | 1000 to 10000 nM |  |  |  | CC(=O)Nc1cc(-c2cccc(-c3cc(NC(=O)c4ccnc(C(C)(C)C#N)c4)ccc3C)c2)ncn1 [Example 79] |
| ≤ 100 nM | 1000 to 10000 nM | ≤ 100 nM | 1000 to 10000 nM |  |  |  | Cc1ccc(NC(=O)c2ccnc(C(F)(F)F)c2)cc1-c1cccc(-c2cc(NC(=O)C3CC3)ncn2)c1 [Example 80] |
| ≤ 100 nM | 1000 to 10000 nM | ≤ 100 nM | 1000 to 10000 nM |  |  |  | Cc1ccc(NC(=O)c2ccnc(C(C)(C)C#N)c2)cc1-c1ccnc(-c2ccnc(N)c2)n1 [Example 82] |
| ≤ 100 nM | 1000 to 10000 nM | ≤ 100 nM | 1000 to 10000 nM |  |  |  | CC(=O)Nc1cc(-c2cc(-c3cc(NC(=O)c4ccnc(C(F)(F)F)c4)ccc3C)nc(C)n2)ccn1 [Example 83] |
| ≤ 100 nM | 1000 to 10000 nM | ≤ 100 nM | 1000 to 10000 nM |  |  |  | CC(=O)Nc1cc(-c2cc(-c3cc(NC(=O)c4ccnc(C(F)(F)F)c4)ccc3C)ncn2)ccn1 [Example 84] |
| ≤ 100 nM | 1000 to 10000 nM | ≤ 100 nM | 1000 to 10000 nM |  |  |  | CNC(=O)c1cc(-c2cc(-c3cc(NC(=O)c4ccnc(C(F)(F)F)c4)ccc3C)ncn2)ccn1 [Example 85] |
| ≤ 100 nM | 1000 to 10000 nM | ≤ 100 nM | 1000 to 10000 nM |  |  |  | CNC(=O)c1cc(-c2cncc(-c3cc(NC(=O)c4ccnc(C(C)(C)C#N)c4)ccc3C)n2)ccn1 [Example 86] |
| ≤ 100 nM | 1000 to 10000 nM | ≤ 100 nM | 1000 to 10000 nM |  |  |  | CC(=O)Nc1cc(-c2cncc(-c3cc(C(=O)Nc4cnn(C(C)C)c4)ccc3C)n2)ccn1 [Example 87] |
| ≤ 100 nM | 1000 to 10000 nM | ≤ 100 nM | 1000 to 10000 nM |  |  |  | COCC(=O)Nc1cc(-c2nccc(-c3cc(NC(=O)c4ccnc(C(C)(C)C#N)c4)ccc3C)n2)ccn1 [Example 88] |
| ≤ 100 nM | 1000 to 10000 nM | ≤ 100 nM | 1000 to 10000 nM |  |  |  | CC(=O)Nc1cc(-c2cc(-c3cc(NC(=O)c4ccnc(C(C)(C)C#N)c4)ccc3C)nc(C)n2)ccn1 [Example 89] |
| ≤ 100 nM | 1000 to 10000 nM | ≤ 100 nM | 1000 to 10000 nM |  |  |  | Cc1ccc(NC(=O)c2ccnc(C(F)(F)F)c2)cc1-c1cncc(-c2ccnc(N)c2)n1 [Example 90] |
| ≤ 100 nM | 100 to 500 nM | ≤ 100 nM | 1000 to 10000 nM |  |  |  | CC(=O)Nc1cc(-c2ccnc(-c3cc(NC(=O)c4ccnc(C(F)(F)F)c4)ccc3C)n2)ccn1 [Example 92] |
|  |  |  | 1000 to 10000 nM | ≤ 100 nM | 1000 to 10000 nM | ≤ 100 nM | CNC(=O)c1cc(-c2cncc(-c3cc(NC(=O)c4ccnc(C(C)(C)F)c4)ccc3C)c2)ncn1 [Example 379] |
|  |  |  | 1000 to 10000 nM | ≤ 100 nM | 1000 to 10000 nM | ≤ 100 nM | COC(=O)Nc1cc(-c2cncc(-c3cc(NC(=O)c4ccnc(C(C)(C)F)c4)c(F)cc3C)c2)ccn1 [Example 384] |
|  |  |  | 1000 to 10000 nM | ≤ 100 nM | 1000 to 10000 nM | ≤ 100 nM | COC(=O)Nc1cc(-c2nccc(-c3cc(NC(=O)c4ccnc(C(C)(C)F)c4)ccc3C)n2)ccn1 [Example 391] |
|  |  |  | 1000 to 10000 nM | ≤ 100 nM | 1000 to 10000 nM | ≤ 100 nM | CNC(=O)c1cc(-c2cncc(-c3cc(NC(=O)c4ccnc(C5(C#N)CC5)c4)ccc3C)c2)ncn1 [Example 393] |
|  |  |  | 100 to 500 nM | ≤ 100 nM | 100 to 500 nM | ≤ 100 nM | Cc1ccc(NC(=O)c2ccnc(C(C)(C)F)c2)cc1-c1cncc(-c2cc(NC(=O)C3CC3)ncn2)c1 [Example 394] |
|  |  |  | 100 to 500 nM | ≤ 100 nM | 500 to 1000 nM | ≤ 100 nM | Cc1ccc(NC(=O)c2ccnc(C3(C#N)CC3)c2)cc1-c1cncc(-c2cc(NC(=O)C3CC3)ncn2)c1 [Example 395] |
|  |  |  | 1000 to 10000 nM | ≤ 100 nM | 100 to 500 nM | ≤ 100 nM | Cc1ccc(NC(=O)c2ccnc(C3CC3)c2)cc1-c1cncc(-c2cc(NC(=O)C3CC3)ncn2)c1 [Example 396] |
|  |  |  | 100 to 500 nM | ≤ 100 nM | 1000 to 10000 nM | ≤ 100 nM | Cc1ccc(NC(=O)c2ccnc(C(F)(F)F)c2)cc1-c1cncc(-c2cc(NC(=O)C3CC3)ncn2)c1 [Example 397] |
|  |  |  | 500 to 1000 nM | ≤ 100 nM | 1000 to 10000 nM | ≤ 100 nM | Cc1cc(F)c(NC(=O)c2ccnc(C3CC3)c2)cc1-c1cncc(-c2cc(NC(=O)C3CC3)ncn2)c1 [Example 398] |
|  |  |  | 1000 to 10000 nM | ≤ 100 nM | 1000 to 10000 nM | ≤ 100 nM | COC(=O)Nc1cc(-c2cc(-c3cc(NC(=O)c4ccnc(C(C)(C)F)c4)ccc3C)cc(OCCO)n2)ccn1 [Example 401] |
